{"source": "patent US9493487B2", "about": "“3-(1H-imidazo[4,5-C]pyridin-2-YL)-1H-pyrazolo[3,4-B]pyridine and therapeutic uses thereof” (Samumed, LLC, priority 2014, dated 2016)", "key": {"[1]": {"test_system": "Wnt activity (Sp5-Luc reporter, SW480 colon carcinoma cells)", "assay": "Sp5-Luc Wnt reporter gene assay in SW480 colon carcinoma cells", "format": "cell-based", "settings": "Homo sapiens; SW480 cells stably expressing Sp5-Luc reporter; 42 h incubation; BrightGlo luminescence normalized to DMSO", "description": "The screening assay for Wnt activity is described as follows. Reporter cell lines can be generated by stably transducing cancer cell lines (e.g., colon cancer) or primary cells (e.g., IEC-6 intestinal cells) with a lentiviral construct that includes a Wnt-responsive promoter driving expression of the firefly luciferase gene.\nSW480 colon carcinoma cells were transduced with a lentiviral vector expressing luciferase with a human Sp5 promoter consisting of a sequence of eight TCF/LEF binding sites. SW480 cells stably expressing the Sp5-Luc reporter gene and a hygromycin resistance gene were selected by treatment with 150 μg/ml of hygromycin for 7 days. These stably transduced SW480 cells were expanded in cell culture and used for all further screening activities. For Sp5-Luc reporter gene assays, the cells were plated at 10,000 cells/well in 96-well plates with growth medium containing 10% fetal calf serum and incubated overnight at 37° C. and 5% CO2. Each compound was dissolved in DMSO as a 10 mM stock in standard j-vials and used to prepare compound source plates in dose-response format with 3-fold serial dilutions and a 10 mM top concentration. Compound transfer from serially diluted source plates to assay plates containing the cells was accomplished using a pintool (Multimek 96, Beckman equipped with V&P Scientific FP1S50H pins) based liquid handling protocol. This protocol used a slotted pin to transfer 50 nl of compound from a source plate well to an assay plate well containing 50 μl of cells in growth medium. […] Control wells received 50 nl of DMSO treatment for normalization and calculating IC50 values. The treated cells were incubated at 37° C. and 5% CO2 for an additional forty-two hours. Following incubation, the growth medium was removed and 50 μl of BrightGlo luminescence reagent (Promega) was added to each well of the 96-well assay plates. The plates were placed on an orbital shaker for 5 min and then luminescence was quantified on the Victor3 (Perkin Elmer) plate reader. Readings were normalized to DMSO only treated cells, and normalized activities were utilized for IC50 calculations using the dose-response log (inhibitor) vs. response-variable slope (four parameters) nonlinear regression feature available in GraphPad Prism 5.0 or 6.0."}, "[2]": {"test_system": "primary human fibroblasts derived from IPF patients (LL29 cells)", "assay": "Inhibition of TGF-β1-induced fibrosis (αSMA staining) in primary human fibroblasts from IPF patients", "format": "cell-based", "settings": "Fibroblast, 96 h, TGF-β1 20 ng/mL, 4 days, 11-point dose-response 10 μM to 1.87 nM", "description": "The above synthesized compounds were screened using primary human fibroblasts (derived from IPF patients) treated with TGF-β1 to determine their ability to inhibit the fibrotic process.\nPrimary human fibroblasts derived from IPF patients (LL29 cells) [^1Xiaoqiu Liu, et. al., “Fibrotic Lung Fibroblasts Show Blunted Inhibition by cAMP Due to Deficient cAMP Response Element-Binding Protein Phosphorylation”, Journal of Pharmacology and Experimental Therapeutics (2005), 315(2), 678-687; ^2Watts, K. L., et. al., “RhoA signaling modulates cyclin D1 expression in human lung fibroblasts; implications for idiopathic pulmonary fibrosis”, Respiratory Research (2006), 7(1), 88] were obtained from American Type Culture Collection (ATCC) and expanded in F12 medium supplemented with 15% Fetal Bovine Serum and Penicillin/Streptomycin.\nEach compound was dissolved in DMSO as a 10 mM stock and used to prepare compound source plates. Serial dilution (1:2, 11-point dose-response curves from 10 μM to 1.87 nM) and compound transfer was performed using the ECHO 550 (Labcyte, Sunnyvale, Calif.) into 384-well clear bottom assay plates (Greiner Bio-One) with appropriate DMSO backfill for a final DMSO concentration of 0.1%. LL29 cells were plated at 1,500 cells/well in 80 μl/well F12 medium supplemented with 1% Fetal Bovine Serum. One hour after addition of the cells, TGF-β1 (Peprotech; 20 ng/mL) was added to the plates to induce fibrosis (ref. 1 and 2 above). Wells treated with TGF-β1 and containing DMSO were used as controls. Cells were incubated at 37° C. and 5% CO2 for 4 days. Following incubation for 4 days, SYTOX green nucleic acid stain (Life Technologies [Thermo Fisher Scientific]) was added to the wells at a final concentration of 1 uM and incubated at room temperature for 30 min. Cells were then fixed using 4% formaldehyde (Electron Microscopy Sciences), washed 3 times with PBS followed by blocking and permeabilization using 3% Bovine Serum Albumin (BSA; Sigma) and 0.3% Triton X-100 (Sigma) in PBS. Cells were then stained with antibody specific to α-smooth muscle actin (αSMA; Abcam) (ref 1 and 2 above) in 3% Bovine Serum Albumin (BSA; Sigma) and 0.3% Triton X-100 (Sigma) in PBS, and incubated overnight at 4° C. Cells were then washed 3 times with PBS, followed by incubation with Alexa Flor-647 conjugated secondary antibody (Life Technologies [Thermo Fisher Scientific]) and DAPI at room temperature for 1 hour. Cells were then washed 3 times with PBS and plates were sealed for imaging. αSMA staining was imaged by excitation at 630 nm and emission at 665 nm and quantified using the Compartmental Analysis program on the CellInsight CX5 (Thermo Scientific). Dead or apoptotic cells were excluded from analysis based on positive SYTOX green staining. % of total cells positive for αSMA were counted in each well and normalized to the average of 11 wells treated with TGF-β1 on the same plate using Dotmatics' Studies Software. The normalized averages (fold change over untreated) of 3 replicate wells for each compound concentration were used to create dose-responses curves and EC50 values were calculated using non-linear regression curve fit in the Dotmatics' Studies Software. The EC50 values are reported."}}, "data": [{"smiles": "CCCCC(=O)Nc1cncc(-c2cnc3[nH]nc(-c4nc5c(-c6ccccn6)nccc5[nH]4)c3c2)c1", "note": "[Compound 148, N-(5-(3-(4-(Pyridin-2-yl)-1H-imidazo[4,5-c]pyridin-2-yl)-1H-pyrazolo[3,4-b]pyridin-5-yl)pyridin-3-yl)pentanamide]", "values": [{"measurement": "IC50", "setting": "[1]", "value": 6160, "unit": "nM"}, {"measurement": "EC50", "setting": "[2]", "value": 9, "unit": "nM"}]}, {"smiles": "O=C(Nc1cncc(-c2cnc3[nH]nc(-c4nc5c(N6CCCCC6)nccc5[nH]4)c3c2)c1)C1CC1", "note": "[Compound 175, N-(5-(3-(4-(Piperidin-1-yl)-1H-imidazo[4,5-c]pyridin-2-yl)-1H-pyrazolo[3,4-b]pyridin-5-yl)pyridin-3-yl)cyclopropanecarboxamide]", "values": [{"measurement": "IC50", "setting": "[1]", "value": 413, "unit": "nM"}, {"measurement": "EC50", "setting": "[2]", "value": 859, "unit": "nM"}]}, {"smiles": "O=C(Cc1ccccc1)Nc1cncc(-c2cnc3[nH]nc(-c4nc5c(-c6ccncc6)nccc5[nH]4)c3c2)c1", "note": "[Compound 114, 2-Phenyl-N-(5-(3-(4-(pyridin-4-yl)-1H-imidazo[4,5-c]pyridin-2-yl)-1H-pyrazolo[3,4-b]pyridin-5-yl)pyridin-3-yl)acetamide]", "values": [{"measurement": "IC50", "setting": "[1]", "value": "> 10000", "unit": "nM"}, {"measurement": "EC50", "setting": "[2]", "value": "≥ 9990", "unit": "nM"}]}, {"smiles": "Fc1cccc(-c2nccc3[nH]c(-c4n[nH]c5ncc(-c6ccncc6)cc45)nc23)c1", "note": "[Compound 900, 3-(4-(3-Fluorophenyl)-1H-imidazo[4,5-c]pyridin-2-yl)-5-(pyridin-4-yl)-1H-pyrazolo[3,4-b]pyridine]", "values": [{"measurement": "IC50", "setting": "[1]", "value": "> 10000", "unit": "nM"}, {"measurement": "EC50", "setting": "[2]", "value": 9, "unit": "nM"}]}, {"smiles": "FC1(F)CCN(Cc2cncc(-c3cnc4[nH]nc(-c5nc6c(-c7cccs7)nccc6[nH]5)c4c3)c2)C1", "note": "[Compound 311, 5-(5-((3,3-Difluoropyrrolidin-1-yl)methyl)pyridin-3-yl)-3-(4-(thiophen-2-yl)-1H-imidazo[4,5-c]pyridin-2-yl)-1H-pyrazolo[3,4-b]pyridine]", "values": [{"measurement": "IC50", "setting": "[1]", "value": 22.8, "unit": "nM"}, {"measurement": "EC50", "setting": "[2]", "value": 174, "unit": "nM"}]}, {"smiles": "CCCCC(=O)Nc1cncc(-c2cnc3[nH]nc(-c4nc5c(-c6cc(F)cc(NCCN(C)C)c6)nccc5[nH]4)c3c2)c1", "note": "[Compound 434, N-(5-(3-(4-(3-((2-(Dimethylamino)ethyl)amino)-5-fluorophenyl)-1H-imidazo[4,5-c]pyridin-2-yl)-1H-pyrazolo[3,4-b]pyridin-5-yl)pyridin-3-yl)pentanamide]", "values": [{"measurement": "IC50", "setting": "[1]", "value": 21.9, "unit": "nM"}, {"measurement": "EC50", "setting": "[2]", "value": 13, "unit": "nM"}]}, {"smiles": "Fc1cccc(-c2nccc3[nH]c(-c4n[nH]c5ncc(C6CCNCC6)cc45)nc23)c1", "note": "[Compound 885, 3-(4-(3-Fluorophenyl)-1H-imidazo[4,5-c]pyridin-2-yl)-5-(piperidin-4-yl)-1H-pyrazolo[3,4-b]pyridine]", "values": [{"measurement": "IC50", "setting": "[1]", "value": 3860, "unit": "nM"}, {"measurement": "EC50", "setting": "[2]", "value": 9, "unit": "nM"}]}, {"smiles": "CC(C)CC(=O)Nc1cncc(-c2cnc3[nH]nc(-c4nc5c(-c6ccc(F)s6)nccc5[nH]4)c3c2)c1", "note": "[Compound 314, N-(5-(3-(4-(5-Fluorothiophen-2-yl)-1H-imidazo[4,5-c]pyridin-2-yl)-1H-pyrazolo[3,4-b]pyridin-5-yl)pyridin-3-yl)-3-methylbutanamide]", "values": [{"measurement": "IC50", "setting": "[1]", "value": 6.3, "unit": "nM"}, {"measurement": "EC50", "setting": "[2]", "value": 9, "unit": "nM"}]}, {"smiles": "CCC(=O)Nc1cncc(-c2cnc3[nH]nc(-c4nc5c(N6CCCCC6)nccc5[nH]4)c3c2)c1", "note": "[Compound 157, N-(5-(3-(4-(Piperidin-1-yl)-1H-imidazo[4,5-c]pyridin-2-yl)-1H-pyrazolo[3,4-b]pyridin-5-yl)pyridin-3-yl)propionamide]", "values": [{"measurement": "IC50", "setting": "[1]", "value": 148, "unit": "nM"}, {"measurement": "EC50", "setting": "[2]", "value": 432, "unit": "nM"}]}, {"smiles": "CN(C)Cc1cncc(-c2cnc3[nH]nc(-c4nc5c(-c6cccs6)nccc5[nH]4)c3c2)c1", "note": "[Compound 299, N,N-Dimethyl-1-(5-(3-(4-(thiophen-2-yl)-1H-imidazo[4,5-c]pyridin-2-yl)-1H-pyrazolo[3,4-b]pyridin-5-yl)pyridin-3-yl)methanamine]", "values": [{"measurement": "IC50", "setting": "[1]", "value": 1440, "unit": "nM"}, {"measurement": "EC50", "setting": "[2]", "value": "≥ 9990", "unit": "nM"}]}, {"smiles": "Cc1ccc(-c2nccc3[nH]c(-c4n[nH]c5ncc(-c6cncc(NC(=O)C7CCCC7)c6)cc45)nc23)s1", "note": "[Compound 359, N-(5-(3-(4-(5-Methylthiophen-2-yl)-1H-imidazo[4,5-c]pyridin-2-yl)-1H-pyrazolo[3,4-b]pyridin-5-yl)pyridin-3-yl)cyclopentanecarboxamide]", "values": [{"measurement": "IC50", "setting": "[1]", "value": 29.9, "unit": "nM"}, {"measurement": "EC50", "setting": "[2]", "value": 4850, "unit": "nM"}]}]}
